Assay results taken from patent US8772504B2, “Substituted benzoxazole, benzimidazole, oxazolopyridine and imidazopyridine derivatives as gamma secretase modulators” (Janssen Pharmaceuticals, Inc., priority 2009, dated 2014).

Tests used:
Aβ42 [1] = experiment: In vivo efficacy Method 1: brain soluble Aβ42 by ELISA; design: species or system mouse; conditions: Table 4a, single oral dose, overnight fasted animals, sacrificed after 4 h, soluble fraction of brain homogenates
Description: (§1) To determine whether acute administration of an Aβ42 lowering agent would reduce Aβ42 levels in vivo, non-transgenic rodents, e.g. mice or rats were used. Alternatively, two to three month old Tg2576 mice expressing APP695 containing the “Swedish” variant can be used or a transgenic mouse model developed by Dr. Fred Van Leuven (K.U. Leuven, Belgium) and co-workers, with neuron-specific expression of a clinical mutant of the human amyloid precursor protein [V717I] […] Young transgenic mice have high levels of Aβ in the brain but no detectable Aβ deposition. At approximately 6-8 months of age, the transgenic mice start to display spontaneous, progressive accumulation of β-amyloid (Aβ) in the brain, eventually resulting in amyloid plaques within the subiculum, hippocampus and cortex. Animals treated with the Aβ42 lowering agent were examined and compared to those untreated or treated with vehicle and brain levels of soluble Aβ42 and total Aβ would be quantitated by standard techniques, for example, using ELISA.
(§2) A typical protocol for measuring Aβ42 lowering in vivo is shown but it is only one of many variations that could be used to optimize the levels of detectable Aβ. For example, Aβ42 lowering compounds were formulated in 20% of Captisol® (a sulfobutyl ether of β-cyclodextrin) in water or 20% hydroxypropyl β cyclodextrin. The Aβ42 lowering agents were administered as a single oral dose or by any acceptable route of administration to overnight fasted animals. After 4 h, the animals were sacrificed and Aβ42 levels were analysed.
(§3) Blood was collected by decapitation and exsanguinations in EDTA-treated collection tubes. Blood was centrifuged at 1900 g for 10 minutes (min) at 4° C. and the plasma recovered and flash frozen for later analysis. The brain was removed from the cranium and hindbrain. The cerebellum was removed and the left and right hemisphere were separated. The left hemisphere was stored at −18° C. for quantitative analysis of test compound levels. The right hemisphere was rinsed with phosphate-buffered saline (PBS) buffer and immediately frozen on dry ice and stored at −80° C. until homogenization for biochemical assays.
(§4) All samples were sonicated for 30 seconds on ice at 20% power output (pulse mode). Homogenates were centrifuged at 221.300×g for 50 min. The resulting high speed supernatants were then transferred to fresh tubes and were optionally further purified before the next step. A portion of the supernatant was neutralized with 10% 0.5 M Tris-HCl and this was used to quantify Aβtotal.
(§5) The obtained supernatants were purified with Water Oasis HLB reverse phase columns (Waters Corp., Milford, Mass.) to remove non-specific immunoreactive material from the brain lysates prior subsequent Aβ detection. Using a vacuum manifold, all solutions were passed through the columns at a rate of approximately 1 ml per min, so the vacuum pressure was adjusted accordingly throughout the procedure. Columns were preconditioned with 1 ml of 100% MeOH, before equilibration with 1 ml of H2O, Non-neutralized brain lysates were loaded onto the columns. The loaded samples were then washed twice with the first wash performed with 1 ml of 5% MeOH, and the second wash with 1 ml of 30% MeOH. Finally, the Aβ was eluted from the columns and into 100×30 mm glass tubes, with a solution of 90% MeOH with 2% NH4OH. The eluate was then transferred into 1.5 ml tubes and concentrated in a speed-vac concentrator on high heat for about 1.5-2 h at 70° C. The concentrated Aβ was then resuspended in UltraCULTURE General Purpose Serum-Free Medium (Cambrex Corp., Walkersville, Md.) plus Protease Inhibitors added.
To quantify the amount of Aβ42 in the soluble fraction of the brain homogenates, commercially available Enzyme-Linked-Immunosorbent-Assay (ELISA) kits were used (e.g. Innotest® β-Amyloid(1-42), Innogenetics N.V., Ghent, Belgium). The Aβ42 ELISA was performed using the plate provided with the kit only.

Aβtotal [2] = experiment: Screening for γ-secretase-modulating activity, Method 1: Aβtotal sandwich ELISA on SKNBE2 cell media; assay type: cell-based; conditions: SKNBE2 cells carrying APP 695 wild type
Procedure, shortened: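 SKNBE2 cells expressing wild-type APP 695 were treated with compound for 18 hours. Aβtotal in the medium was measured by sandwich ELISA (6E10 capture, biotinylated 4G8 detection, fluorogenic peroxidase read-out). IC50 came from a 4-parameter fit of % inhibition with top/bottom fixed at 100/0 and Hill slope 1, or as averaged IC50 from % of untreated control.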

Aβtotal [3] = experiment: In vivo efficacy Method 1: brain soluble Aβtotal by ELISA; design: species or system mouse; conditions: Table 4a, single oral dose, overnight fasted animals, sacrificed after 4 h, soluble fraction of brain homogenates
Description: as §1, §2, §3, §4
as §5, with “added. […]” for “added.”

Aβ42 [4] = experiment: Screening for γ-secretase-modulating activity, Method 1: Aβ42 sandwich ELISA on SKNBE2 cell media; assay type: cell-based; conditions: SKNBE2 cells carrying APP 695 wild type
Procedure, shortened: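 SKNBE2 cells expressing wild-type APP695 were treated with compound for 18 h in Ultraculture/1% glutamine. Secreted Aβ42 was quantified by sandwich ELISA (C-terminal capture, biotinylated 3D6, TMB, 450 nm), with WST-1 used as a toxicity check. IC50 was derived from 4-parameter fits of % inhibition or % of untreated control.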

Aβ42 [5] = experiment: Screening for γ-secretase-modulating activity, Method 2: Aβ42 Alphalisa on SKNBE2 cell supernatant; assay type: cell-based; conditions: Method 2, Table 3c, SKNBE2 cells carrying APP 695 wild type, overnight incubation
Procedure, shortened: (§6)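 SKNBE2 cells expressing wild-type APP695, plated at 10^4 cells/well with compound at several concentrations and incubated overnight at 37° C. Aβ42 (C-terminal capture, N-terminal biotinylated detection) and Aβtotal (N-terminal/4G8 pair) measured in supernatant by AlphaLISA. IC50 from 4-parameter fit of percent of compound-free control.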

Aβtotal [6] = experiment: Screening for γ-secretase-modulating activity, Method 2: Aβtotal Alphalisa on SKNBE2 cell supernatant; assay type: cell-based; conditions: Method 2, Table 3c, SKNBE2 cells carrying APP 695 wild type, overnight incubation
Procedure, shortened: as §6

[7] = Homo sapiens, Table 3a, 18 hours, XLfit, top/bottom fixed to 100 and 0, hill slope 1
[8] = Homo sapiens, Table 3b, non-linear regression of % of control, averaged IC50 values
[9] = Table 3a, 18 hours, XLfit, top/bottom fixed to 100 and 0, hill slope 1
[10] = Table 3b, non-linear regression of % of control, averaged IC50 values

Row | Structure (SMILES) | IC50 (Aβtotal [2]; [7]) [nM] | IC50 (Aβtotal [2]; [8]) [nM] | IC50 (Aβ42 [4]; [7]) [nM] | IC50 (Aβ42 [4]; [8]) [nM] | IC50 (Aβtotal [2]; [9]) [nM] | IC50 (Aβtotal [2]; [10]) [nM] | IC50 (Aβ42 [4]; [9]) [nM] | IC50 (Aβ42 [4]; [10]) [nM] | IC50 (Aβ42 [5]) [nM] | IC50 (Aβtotal [6]) [nM] | IC50 (Aβ42 [5]; Homo sapiens) [nM] | IC50 (Aβtotal [6]; Homo sapiens) [nM] | Aβ42 (% Ctrl) _Mean (Aβ42 [1]) [% Ctrl] | Aβtotal (% Ctrl) _Mean (Aβtotal [3]) [% Ctrl]
1 | Cc1cn(-c2ccc(Nc3cccc4c3nc(-c3ccc(F)cc3)n4C)nc2)cn1 [Compound 5] | > 3000 | > 3000 | 31 | 30 |  |  |  |  |  |  |  |  | 62 | 94
2 | Cc1cn(-c2ccc(Nc3cccc4c3nc(-c3ccc(F)cc3)n4C)cc2)cn1 [Compound 7] | > 1000 | > 3000 | 22 | 23 |  |  |  |  |  |  |  |  | 58 | 89
3 | COc1cc(Nc2cccc3oc(CC(C)C)nc23)ccc1-n1cnc(C)c1 [Compound 18] | > 5000 | > 10000 | 101 | 102 |  |  |  |  |  |  |  |  | 81 | 95
4 | COc1cc(Nc2cccc3c2nc(N2CC(C)OC(C)C2)n3C)ccc1-n1cnc(C)c1 (stereo not shown) [Compound 44] |  |  |  |  | > 5000 | > 5000 | 135 | 135 |  |  |  |  | 91 | 101
5 | Cc1ncn(-c2ccc(Nc3cccc4c3nc(-c3ccc(F)cc3)n4C(C)C)cc2F)n1.Cl.Cl [Compound 74] |  |  |  |  | > 3000 | > 3000 | 65 | 59 |  |  |  |  | 86 | 99
6 | COc1cc(Nc2cccc3oc(Cc4ccc(F)cc4)nc23)ccc1-n1cnc(C)c1 [Compound 82] |  |  |  |  | > 3000 | > 3000 | 147 | 141 |  |  |  |  | 85 | 96
7 | Cc1cn(-c2ccc(Nc3cccc4c3nc(-c3ccc(F)cc3)n4C)nn2)cn1 [Compound 95] |  |  |  |  | > 10000 | > 10000 | 331 | 331 |  |  |  |  | 85 | 95
8 | COc1nc(Nc2nc(C)cc3c2nc(-c2ccc(F)cc2)n3C)ccc1-n1cnc(C)c1 [Compound 150] |  |  |  |  |  | 6920 |  | 437 | 145 | 4900 |  |  |  | 
9 | COc1nc(Nc2cc(F)cc3c2nc(-c2ccccc2Cl)n3C)ccc1-n1cnc(C)c1 [Compound 151] |  |  |  |  |  | > 3000 |  | 5 | 11 | 4900 |  |  |  | 
10 | COCCCc1cc(Nc2ccc(-n3cnc(C)n3)c(OC)c2)c2nc(-c3ccc(F)cc3)n(C)c2n1 [Compound 208] |  | > 3000 |  | 35 |  |  |  |  |  |  | 91 | > 10000 |  | 

Second part, led by results:

Row | IC50 (Aβtotal [2]; [7]) [nM] | IC50 (Aβtotal [2]; [8]) [nM] | IC50 (Aβ42 [4]; [7]) [nM] | IC50 (Aβ42 [4]; [8]) [nM] | IC50 (Aβtotal [2]; [9]) [nM] | IC50 (Aβtotal [2]; [10]) [nM] | IC50 (Aβ42 [4]; [9]) [nM] | IC50 (Aβ42 [4]; [10]) [nM] | IC50 (Aβ42 [5]) [nM] | IC50 (Aβtotal [6]) [nM] | IC50 (Aβ42 [5]; Homo sapiens) [nM] | IC50 (Aβtotal [6]; Homo sapiens) [nM] | Structure (SMILES) | Aβ42 (% Ctrl) _Mean (Aβ42 [1]) [% Ctrl] | Aβtotal (% Ctrl) _Mean (Aβtotal [3]) [% Ctrl]
11 | > 1000 | > 3000 | 13 | 13 |  |  |  |  |  |  |  |  | COc1cc(Nc2cccc3c2nc(-c2ccc(F)cc2F)n3C)ccc1-n1cnc(C)c1 [Compound 3] | 46 | 87
12 |  |  |  |  | > 3000 | > 3000 | 104 | 126 |  |  |  |  | COc1cc(Nc2cccc3c2nc(C2CCCCC2)n3C)ccc1-n1cnc(C)c1 [Compound 38] | 72 | 101
13 | > 1000 | > 3000 | 15 | 13 |  |  |  |  |  |  |  |  | COc1cc(Nc2cccc3[nH]c(-c4ccccc4C)nc23)ccc1-n1cnc(C)c1 [Compound 45] | 93 | 94
14 |  |  |  |  | > 1000 | > 3000 | 20 | 25 |  |  |  |  | COCCn1c(-c2cccc(OC)c2)nc2c(Nc3ccc(-n4cnc(C)c4)c(OC)c3)cccc21.Cl.Cl [Compound 54] | 71 | 96
15 |  |  |  |  | > 3000 | > 3000 | 50 | 37 |  |  |  |  | Cc1ncn(-c2ccc(Nc3cccc4c3nc(-c3ccc(F)cc3)n4C)cn2)n1 [Compound 70] | 64 | 99
16 |  |  |  |  | > 1000 | > 3000 | 28 | 28 |  |  |  |  | COc1cc(Nc2cccc3c2nc(-c2ccc(F)cc2)n3C)ccc1-n1cnc(Br)c1 [Compound 71] | 88 | 102
17 |  |  |  |  | > 30000 | > 10000 | 1850 | 1740 |  |  |  |  | COc1cc(Nc2cccc3oc(-c4ccc(F)cc4)nc23)ccc1-n1cnc(C)c1 [Compound 80] | 97 | 102
18 |  |  |  |  | > 1000 | > 3000 | 10 | 10 |  |  |  |  | COc1cc(-c2nc3c(Nc4ccc(-n5cnc(C)n5)c(OC)c4)cccc3n2C)ccc1Cl [Compound 85] | 71 | 93
19 |  |  |  |  | > 3000 | > 3000 | 36 | 33 |  |  |  |  | COc1cc(Nc2cccc3c2nc(-c2ccc(F)cc2)n3C)ccc1-n1ncnc1C [Compound 91] | 68 | 94
20 |  |  |  |  | > 1000 | > 3000 | 31 | 24 |  |  |  |  | COc1cc(Nc2cccc3c2nc(-c2cccc(Cl)c2)n3C)ccc1-n1ncnc1C [Compound 96] | 62 | 88
21 |  |  |  |  |  | > 3000 |  | 48 | 29 | 4270 |  |  | COc1cccc(-c2nc3c(Nc4ccc(-n5cnc(C)n5)c(OC)c4)nc(C)cc3n2C)c1 [Compound 163] |  | 
